Measured values taken from ChEMBL document CHEMBL3779867, “An NMR Biochemical Assay for Fragment-Based Drug Discovery: Evaluation of an Inhibitor Activity on Spermidine Synthase of Trypanosoma cruzi” (J Med Chem, 2016).
pIC50: −log10 of the molar value.

Columns and labels:
Spermidine synthase [1] = biological target: T1, Spermidine synthase (Trypanosoma cruzi (strain CL Brener), UniProt Q4CXJ6); experiment: Inhibition of Trypanosoma cruzi strain CL Brener N-terminal poly-His tagged spermidine synthase expressed in Escherichia coli BL21(DE3) using 50 uM putrescine as substrate in presence of 100 uM dcSAM incubated for 1 hr by NMR analysis based constant-time batch reaction assay
T1 sequence (Q4CXJ6 whole entry): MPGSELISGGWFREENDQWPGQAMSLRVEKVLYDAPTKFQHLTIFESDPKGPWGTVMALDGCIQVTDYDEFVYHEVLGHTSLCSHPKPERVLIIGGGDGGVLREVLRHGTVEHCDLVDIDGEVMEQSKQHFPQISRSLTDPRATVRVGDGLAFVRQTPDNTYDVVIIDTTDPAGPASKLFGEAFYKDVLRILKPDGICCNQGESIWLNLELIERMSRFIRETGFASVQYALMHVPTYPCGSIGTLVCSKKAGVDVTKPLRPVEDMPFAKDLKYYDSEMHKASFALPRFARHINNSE

Spermidine synthase [2] = biological target: T2, Spermidine synthase (Sus scrofa, UniProt Q6QA75); experiment: Inhibition of porcine spermidine synthase assessed as production of labeled 5'-methylthioadenosine using putrescine as substrate by enzymatic assay in presence of 10 uM decarboxylated AdoMet
T2 sequence (Q6QA75 whole entry): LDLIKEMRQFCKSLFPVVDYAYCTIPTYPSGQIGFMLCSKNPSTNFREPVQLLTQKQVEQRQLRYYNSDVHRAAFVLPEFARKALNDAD

Spermidine synthase [3] = biological target: T1, Spermidine synthase
Description: Inhibition of Trypanosoma cruzi strain CL Brener N-terminal poly-His tagged spermidine synthase expressed in Escherichia coli BL21(DE3) using 0.5 mM putrescine as substrate in presence of 1 mM dcSAM by FA-real time NMR analysis

pIC50 (Spermidine synthase [1])	pIC50 (Spermidine synthase [2])	pIC50 (Spermidine synthase [3])	SMILES
4.00	–	–	NC1=Nc2ccccc2SC1
7.03	5.77	6.21	C[C@H]1CC[C@H](N)CC1
